Tests used:
WT pol β = molecular target: T1, WT pol β (Homo sapiens, UniProt P06746); test: Single turnover polymerase activity (rapid-quench), WT pol β; assay type: biochemical; conditions: for Specificity (kpol/KD) / kpol / Kd: templating base C; for Kd: apparent dNTP dissociation constant; for D KD (i/c): KD(incorrect)/KD(correct) / D kpol (c/i): kpol(correct)/kpol(incorrect): dCTP incorrect, dGTP correct
T1 construct: made in house
Procedure: (§1) A solution containing 50 nM DNA and 200 nM polymerase was rapidly mixed with varying concentrations of dNTP at 37 °C in 50 mM Tris pH 8.0, 20 mM NaCl, 10 mM MgCl2, 2 mM DTT and 10% glycerol using a KinTek rapid-quench flow apparatus. Reactions were quenched with EDTA and the product was separated from the initial reactant on a 20% polyacrylamide gel containing 8 M urea. Rate of phosphodiester bond formation (kpol) and the apparent dNTP dissociation constant (KD) were extracted as previously reported ([16]). Fidelity was calculated using the catalytic specificity (kpol/KD) for correct (dGTP) and incorrect (dCTP): (kpol/KD)correct/(kpol/KD) incorrect ([37]).

K289M pol β = molecular target: T2, K289M pol β (Homo sapiens, UniProt P06746, K289M); test: Single turnover polymerase activity (rapid-quench), K289M pol β; assay type: biochemical; conditions: for Specificity (kpol/KD) / kpol / Kd: templating base C; for Kd: apparent dNTP dissociation constant; for D KD (i/c): KD(incorrect)/KD(correct) / D kpol (c/i): kpol(correct)/kpol(incorrect): dCTP incorrect, dGTP correct
T2 construct: made in house
Procedure: as §1

[1] = set-up: method as in earlier work; conditions: pKa4 of the leaving group (β,γ-bridging group modified) ref 19, 22, 23; cited from earlier work
[2] = APC in Control sequence, listed as O
[3] = Control in APC sequence, listed as O

Nc1nc2c(ncn2C2CC(O)C(COP(=O)(O)OP(=O)(O)C(Cl)P(=O)(O)O)O2)c(=O)[nH]1 (mixture of isomers) [CHCl]
Specificity (kpol/KD) (WT pol β; APC in Control sequence): 2.9e+06 M⁻¹ s⁻¹ | kpol (WT pol β; APC in Control sequence): 21.7 s⁻¹ | Specificity (kpol/KD) (WT pol β; APC sequence): 2.6e+06 M⁻¹ s⁻¹ | kpol (WT pol β; APC sequence): 20.3 s⁻¹ | Specificity (kpol/KD) (WT pol β; Control in APC sequence): 2.1e+06 M⁻¹ s⁻¹ | kpol (WT pol β; Control in APC sequence): 11.9 s⁻¹ | Specificity (kpol/KD) (WT pol β; Control sequence): 1.18e+07 M⁻¹ s⁻¹ | kpol (WT pol β; Control sequence): 5.90 s⁻¹ | Kd (WT pol β; APC in Control sequence): 7.5 µM | Kd (WT pol β; APC sequence): 7.8 µM | Kd (WT pol β; Control in APC sequence): 5.6 µM | Kd (WT pol β; Control sequence): 0.5 µM | Specificity (kpol/KD) (K289M pol β; APC in Control sequence): 140000 M⁻¹ s⁻¹ | kpol (K289M pol β; APC in Control sequence): 1.37 s⁻¹ | Specificity (kpol/KD) (K289M pol β; APC sequence): 400000 M⁻¹ s⁻¹ | kpol (K289M pol β; APC sequence): 0.80 s⁻¹ | Specificity (kpol/KD) (K289M pol β; Control in APC sequence): 160000 M⁻¹ s⁻¹ | kpol (K289M pol β; Control in APC sequence): 1.01 s⁻¹ | Specificity (kpol/KD) (K289M pol β; Control sequence): 410000 M⁻¹ s⁻¹ | kpol (K289M pol β; Control sequence): 1.18 s⁻¹ | Kd (K289M pol β; APC in Control sequence): 10 µM | Kd (K289M pol β; APC sequence): 2 µM | Kd (K289M pol β; Control in APC sequence): 6.5 µM | Kd (K289M pol β; Control sequence): 2.85 µM

Nc1nc2c(ncn2C2CC(O)C(COP(=O)(O)OP(=O)(O)C(F)P(=O)(O)O)O2)c(=O)[nH]1 (mixture of isomers) [CHF]
Specificity (kpol/KD) (WT pol β; APC in Control sequence): 4.8e+06 M⁻¹ s⁻¹ | kpol (WT pol β; APC in Control sequence): 25.1 s⁻¹ | Specificity (kpol/KD) (WT pol β; APC sequence): 4.9e+06 M⁻¹ s⁻¹ | kpol (WT pol β; APC sequence): 36.4 s⁻¹ | Specificity (kpol/KD) (WT pol β; Control in APC sequence): 9e+06 M⁻¹ s⁻¹ | kpol (WT pol β; Control in APC sequence): 19.9 s⁻¹ | Specificity (kpol/KD) (WT pol β; Control sequence): 2.4e+06 M⁻¹ s⁻¹ | kpol (WT pol β; Control sequence): 10.2 s⁻¹ | Kd (WT pol β; APC in Control sequence): 5.2 µM | Kd (WT pol β; APC sequence): 7.5 µM | Kd (WT pol β; Control in APC sequence): 2.2 µM | Kd (WT pol β; Control sequence): 4.2 µM | Specificity (kpol/KD) (K289M pol β; APC in Control sequence): 1.31e+06 M⁻¹ s⁻¹ | kpol (K289M pol β; APC in Control sequence): 1.36 s⁻¹ | Specificity (kpol/KD) (K289M pol β; APC sequence): 560000 M⁻¹ s⁻¹ | kpol (K289M pol β; APC sequence): 0.90 s⁻¹ | Specificity (kpol/KD) (K289M pol β; Control in APC sequence): 1.25e+06 M⁻¹ s⁻¹ | kpol (K289M pol β; Control in APC sequence): 1.50 s⁻¹ | Specificity (kpol/KD) (K289M pol β; Control sequence): 1.15e+06 M⁻¹ s⁻¹ | kpol (K289M pol β; Control sequence): 1.50 s⁻¹ | Kd (K289M pol β; APC in Control sequence): 1.04 µM | Kd (K289M pol β; APC sequence): 1.6 µM | Kd (K289M pol β; Control in APC sequence): 1.2 µM | Kd (K289M pol β; Control sequence): 1.3 µM

Nc1nc2c(ncn2[C@H]2C[C@H](O)[C@@H](COP(=O)(O)OP(=O)(O)CP(=O)(O)O)O2)c(=O)[nH]1 [CH2]
Specificity (kpol/KD) (WT pol β; APC in Control sequence): 900000 M⁻¹ s⁻¹ | kpol (WT pol β; APC in Control sequence): 6.30 s⁻¹ | Specificity (kpol/KD) (WT pol β; APC sequence): 1.3e+06 M⁻¹ s⁻¹ | kpol (WT pol β; APC sequence): 9.00 s⁻¹ | Specificity (kpol/KD) (WT pol β; Control in APC sequence): 1.4e+06 M⁻¹ s⁻¹ | kpol (WT pol β; Control in APC sequence): 3.10 s⁻¹ | Specificity (kpol/KD) (WT pol β; Control sequence): 4.3e+06 M⁻¹ s⁻¹ | kpol (WT pol β; Control sequence): 2.20 s⁻¹ | Kd (WT pol β; APC in Control sequence): 6.9 µM | Kd (WT pol β; APC sequence): 7.1 µM | Kd (WT pol β; Control in APC sequence): 2.2 µM | Kd (WT pol β; Control sequence): 0.5 µM | Specificity (kpol/KD) (K289M pol β; APC in Control sequence): 250000 M⁻¹ s⁻¹ | kpol (K289M pol β; APC in Control sequence): 1.17 s⁻¹ | Specificity (kpol/KD) (K289M pol β; APC sequence): 410000 M⁻¹ s⁻¹ | kpol (K289M pol β; APC sequence): 0.70 s⁻¹ | Specificity (kpol/KD) (K289M pol β; Control in APC sequence): 380000 M⁻¹ s⁻¹ | kpol (K289M pol β; Control in APC sequence): 0.61 s⁻¹ | Specificity (kpol/KD) (K289M pol β; Control sequence): 260000 M⁻¹ s⁻¹ | kpol (K289M pol β; Control sequence): 0.58 s⁻¹ | Kd (K289M pol β; APC in Control sequence): 4.75 µM | Kd (K289M pol β; APC sequence): 1.7 µM | Kd (K289M pol β; Control in APC sequence): 1.6 µM | Kd (K289M pol β; Control sequence): 2.2 µM

Nc1ccn([C@H]2C[C@H](O)[C@@H](COP(=O)(O)OP(=O)(O)OP(=O)(O)O)O2)c(=O)n1 [dCTP]
kpol (WT pol β; APC in Control sequence): 0.04 s⁻¹ | D KD (i/c): KD(incorrect)/KD(correct) (WT pol β; APC in Control sequence): 111 | kpol (WT pol β; APC sequence): 0.22 s⁻¹ | D KD (i/c): KD(incorrect)/KD(correct) (WT pol β; APC sequence): 148 | kpol (WT pol β; Control in APC sequence): 0.03 s⁻¹ | D KD (i/c): KD(incorrect)/KD(correct) (WT pol β; Control in APC sequence): 268 | kpol (WT pol β; Control sequence): 0.07 s⁻¹ | D KD (i/c): KD(incorrect)/KD(correct) (WT pol β; Control sequence): 639 | Kd (WT pol β; APC in Control sequence): 389 µM | Kd (WT pol β; APC sequence): 340 µM | Kd (WT pol β; Control in APC sequence): 456 µM | Kd (WT pol β; Control sequence): 1280 µM | kpol (K289M pol β; APC in Control sequence): 0.05 s⁻¹ | D KD (i/c): KD(incorrect)/KD(correct) (K289M pol β; APC in Control sequence): 511 | kpol (K289M pol β; APC sequence): 0.05 s⁻¹ | D KD (i/c): KD(incorrect)/KD(correct) (K289M pol β; APC sequence): 205 | kpol (K289M pol β; Control in APC sequence): 0.02 s⁻¹ | D KD (i/c): KD(incorrect)/KD(correct) (K289M pol β; Control in APC sequence): 758 | kpol (K289M pol β; Control sequence): 0.02 s⁻¹ | D KD (i/c): KD(incorrect)/KD(correct) (K289M pol β; Control sequence): 778 | Kd (K289M pol β; APC in Control sequence): 766 µM | Kd (K289M pol β; APC sequence): 267 µM | Kd (K289M pol β; Control in APC sequence): 758 µM | Kd (K289M pol β; Control sequence): 778 µM

Nc1nc2c(ncn2[C@H]2C[C@H](O)[C@@H](COP(=O)(O)OP(=O)(O)OP(=O)(O)O)O2)c(=O)[nH]1 [dGTP]
Specificity (kpol/KD) (WT pol β; APC in Control sequence): 8.1e+06 M⁻¹ s⁻¹ | kpol (WT pol β; APC in Control sequence): 28.5 s⁻¹ | D kpol (c/i): kpol(correct)/kpol(incorrect) (WT pol β; APC in Control sequence): 750 | Specificity (kpol/KD) (WT pol β; APC sequence): 1.54e+07 M⁻¹ s⁻¹ | kpol (WT pol β; APC sequence): 35.5 s⁻¹ | D kpol (c/i): kpol(correct)/kpol(incorrect) (WT pol β; APC sequence): 161 | Specificity (kpol/KD) (WT pol β; Control in APC sequence): 1.3e+07 M⁻¹ s⁻¹ | kpol (WT pol β; Control in APC sequence): 22.1 s⁻¹ | D kpol (c/i): kpol(correct)/kpol(incorrect) (WT pol β; Control in APC sequence): 737 | Specificity (kpol/KD) (WT pol β; Control sequence): 6.3e+06 M⁻¹ s⁻¹ | kpol (WT pol β; Control sequence): 12.6 s⁻¹ | D kpol (c/i): kpol(correct)/kpol(incorrect) (WT pol β; Control sequence): 194 | Kd (WT pol β; APC in Control sequence): 3.5 µM | Kd (WT pol β; APC sequence): 2.3 µM | Kd (WT pol β; Control in APC sequence): 1.7 µM | Kd (WT pol β; Control sequence): 2 µM | pKa4 [1]: 8.9 | Specificity (kpol/KD) (K289M pol β; APC in Control sequence): 1e+06 M⁻¹ s⁻¹ | kpol (K289M pol β; APC in Control sequence): 1.50 s⁻¹ | kpol (K289M pol β; [2]): 1.53 s⁻¹ | D kpol (c/i): kpol(correct)/kpol(incorrect) (K289M pol β; APC in Control sequence): 30 | Specificity (kpol/KD) (K289M pol β; APC sequence): 690000 M⁻¹ s⁻¹ | kpol (K289M pol β; APC sequence): 0.90 s⁻¹ | D kpol (c/i): kpol(correct)/kpol(incorrect) (K289M pol β; APC sequence): 18 | Specificity (kpol/KD) (K289M pol β; Control in APC sequence): 1.37e+06 M⁻¹ s⁻¹ | kpol (K289M pol β; [3]): 1.42 s⁻¹ | D kpol (c/i): kpol(correct)/kpol(incorrect) (K289M pol β; Control in APC sequence): 74 | Specificity (kpol/KD) (K289M pol β; Control sequence): 1.54e+06 M⁻¹ s⁻¹ | kpol (K289M pol β; Control sequence): 1.52 s⁻¹ | D kpol (c/i): kpol(correct)/kpol(incorrect) (K289M pol β; Control sequence): 76 | Kd (K289M pol β; APC in Control sequence): 1.5 µM | Kd (K289M pol β; [2]): 1.53 µM | Kd (K289M pol β; APC sequence): 1.3 µM | Kd (K289M pol β; Control in APC sequence): 1 µM | Kd (K289M pol β; [3]): 1.04 µM | Kd (K289M pol β; Control sequence): 1 µM | Kd (K289M pol β; Control sequence, listed as O): 0.99 µM
